{"source": "patent US20150119394A1", "about": "“Insulin-Like Growth Factor-1 Receptor Inhibitors” (Merck Sharp & Dohme Corp., priority 2012, published 2015)"}
{"biological_target": "T1, intracellular kinase domain of human IGF-1R (GST fusion protein) (Homo sapiens, UniProt P08069)", "T1 construct": "IGFRK and IRK enzyme used for the assay was intracellular kinase domain of human IGF-1R; GST; made in house", "T1 sequence (P08069 999-1274 limits assumed)": "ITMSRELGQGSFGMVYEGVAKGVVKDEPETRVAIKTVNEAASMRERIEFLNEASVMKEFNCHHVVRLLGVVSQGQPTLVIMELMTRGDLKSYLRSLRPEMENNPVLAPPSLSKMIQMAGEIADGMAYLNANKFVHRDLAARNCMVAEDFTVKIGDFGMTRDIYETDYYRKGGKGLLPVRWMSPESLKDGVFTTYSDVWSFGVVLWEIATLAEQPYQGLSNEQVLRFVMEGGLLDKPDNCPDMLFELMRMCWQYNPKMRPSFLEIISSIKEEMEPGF", "assay": "In vitro IGF-1R kinase assay (HTRF)", "format": "biochemical", "settings": "ATP 20 μM, IGFRK 0.25 nM", "experimental": "The in vitro kinase assays using IGF-1R and IR kinase GST fusion proteins were conducted using a homogeneous time-resolved fluorescence (HTRF) format. Kinase reactions were carried out in a 384-well plate format in a final volume of 20 μL. The standard enzyme reaction buffer consisted of 50 mM Tris HCL (pH: 7.4), 1 mM EGTA, 10 mM MgCl2, 2 mM DTT, 0.01% Tween-20, IGF-1R/IR kinase enzyme, poly GT peptide substrate (Perkin Elmer [Ulight Glu-Tyr (4:1)]n) and ATP [concentration equivalent to Kmapp] […] Briefly, 2.5 μL enzyme and 2.5 μL inhibitor was preincubated for 10 minutes at 23° C. followed by the addition of 2.5 μL of poly GT substrate (final concentration of 50 nM). Reaction was initiated with the addition of 2.5 μL of ATP (final concentration of 20 μM for IGF-1R assay and 10 μM for IR assay). After 1 hour incubation at 23° C., the kinase reaction was stopped with the addition of 5 μL EDTA (final concentration of 10 mM in 20 μL). Europium cryptate—labeled antiphosphotyrosine antibody PY20 (5 μL) was added (final concentration of 2 nM) and the mixture was allowed to equilibrate for 1 hour at 23° C. followed by reading the plate in an Envision plate reader.\nThe intensity of light emission at 665 nm was directly proportional to the level of substrate phosphorylation. The IC50 values for inhibitors were determined by a four-parameter sigmoidal curve fit (Sigma plot or Graph pad).\nIGFRK and IRK enzyme used for the assay was intracellular kinase domain of human IGF-1R and human IR cloned and expressed as GST fusion proteins using the baculovirus expression system and purified using glutathione—Sepharose column.", "units": {"IC50": "nM"}}
{"compound": "NC(=O)c1[nH]c2ccc(Cl)cc2c1S(=O)(=O)N1CCO[C@H](COc2cccc(-c3cccnc3F)c2)C1", "note": "[Compound 3, (S)-5-chloro-3-((2-((3-(2-fluoropyridin-3-yl)phenoxy)methyl)morpholino)sulfonyl)-1H-indole-2-carboxamide]", "IC50": 31.2}
{"compound": "Cc1cc(OC[C@@H]2CN(S(=O)(=O)c3c(C(N)=O)[nH]c4ccc(Cl)cc34)CCO2)ccc1-c1ccncc1", "note": "[Compound 67, (S)-5-chloro-3-((2-((3-methyl-4-(pyridin-4-yl)phenoxy)methyl)morpholino)sulfonyl)-1H-indole-2-carboxamide]", "IC50": 4.3}
{"compound": "Cc1cc(OC[C@@H]2CN(S(=O)(=O)c3c(C(N)=O)[nH]c4ccc(Cl)cc34)CCO2)ccc1-c1cccnc1F", "note": "[Compound 68, (S)-5-chloro-3-((2-((4-(2-fluoropyridin-3-yl)-3-methylphenoxy)methyl)morpholino)sulfonyl)-1H-indole-2-carboxamide]", "IC50": 37.9}
{"compound": "COc1ccc(-c2ccc(OC[C@@H]3CN(S(=O)(=O)c4c(C(N)=O)[nH]c5ccc(Cl)cc45)CCO3)cc2C)cn1", "note": "[Compound 69, (S)-5-chloro-3-((2-((4-(6-methoxypyridin-3-yl)-3-methylphenoxy)methyl)morpholino)sulfonyl)-1H-indole-2-carboxamide]", "IC50": "> 100"}
{"compound": "COc1cc(-c2ccc(OC[C@@H]3CN(S(=O)(=O)c4c(C(N)=O)[nH]c5ccc(Cl)cc45)CCO3)cc2C)ccn1", "note": "[Compound 70, (S)-5-chloro-3-((2-((4-(2-methoxypyridin-4-yl)-3-methylphenoxy)methyl)morpholino)sulfonyl)-1H-indole-2-carboxamide]", "IC50": 75.9}
{"compound": "Cc1cc(OC[C@@H]2CN(S(=O)(=O)c3c(C(N)=O)[nH]c4ccc(Cl)cc34)CCO2)ccc1-c1cncnc1", "note": "[Compound 71, (S)-5-chloro-3-((2-((3-methyl-4-(pyrimidin-5-yl)phenoxy)methyl)morpholino)sulfonyl)-1H-indole-2-carboxamide]", "IC50": 5.3}
{"compound": "Cc1cc(OC[C@@H]2CN(S(=O)(=O)c3c(C(N)=O)[nH]c4ccc(Cl)cc34)CCO2)ccc1-c1ccnc(F)c1", "note": "[Compound 72, (S)-5-chloro-3-((2-((4-(2-fluoropyridin-4-yl)-3-methylphenoxy)methyl)morpholino)sulfonyl)-1H-indole-2-carboxamide]", "IC50": 13.3}
{"compound": "Cc1cc(OC[C@@H]2CN(S(=O)(=O)c3c(C(N)=O)[nH]c4ccc(Cl)cc34)CCO2)ccc1-c1ccc(F)nc1", "note": "[Compound 73, (S)-5-chloro-3-((2-((4-(6-fluoropyridin-3-yl)-3-methylphenoxy)methyl)morpholino)sulfonyl)-1H-indole-2-carboxamide]", "IC50": 30}
{"compound": "NC(=O)c1[nH]c2ccc(Cl)cc2c1S(=O)(=O)N1CCO[C@H](COc2cncc(-c3cc(C(F)(F)F)ccc3F)c2)C1", "note": "[Compound 75]", "IC50": "> 1000"}
{"compound": "NC(=O)c1[nH]c2ccc(Cl)cc2c1S(=O)(=O)N1CCO[C@H](COc2cncc(-c3ccccc3)c2)C1", "note": "[Compound 76, (S)-5-chloro-3-((2-(((5-phenylpyridin-3-yl)oxy)methyl)morpholino)sulfonyl)-1H-indole-2-carboxamide]", "IC50": "> 1000"}
{"compound": "NC(=O)c1[nH]c2ccc(Cl)cc2c1S(=O)(=O)N1CCO[C@H](COc2cnc(-c3ccccc3)cn2)C1", "note": "[Compound 77, (S)-5-chloro-3-((2-(((5-phenylpyrazin-2-yl)oxy)methyl)morpholino)sulfonyl)-1H-indole-2-carboxamide]", "IC50": 204}
{"compound": "NC(=O)c1[nH]c2ccc(Cl)cc2c1S(=O)(=O)N1CCO[C@H](COc2cncc(-c3ccccc3F)c2)C1", "note": "[Compound 78]", "IC50": "> 1000"}
{"compound": "NC(=O)c1[nH]c2ccc(Cl)cc2c1S(=O)(=O)N1CCO[C@H](COc2ccc(-c3ccccc3)nc2)C1", "note": "[Compound 79, (S)-5-chloro-3-((2-(((6-phenylpyridin-3-yl)oxy)methyl)morpholino)sulfonyl)-1H-indole-2-carboxamide]", "IC50": 25.4}
{"compound": "NC(=O)c1[nH]c2ccc(Cl)cc2c1S(=O)(=O)N1CCO[C@H](COc2cccc(-c3ccccc3)n2)C1", "note": "[Compound 80, (S)-5-chloro-3-((2-(((6-phenylpyridin-2-yl)oxy)methyl)morpholino)sulfonyl)-1H-indole-2-carboxamide]", "IC50": 47.1}
{"compound": "NC(=O)c1[nH]c2ccc(Cl)cc2c1S(=O)(=O)N1CCO[C@H](COc2ccc(-c3ccccc3)cn2)C1", "note": "[Compound 81, (S)-5-chloro-3-((2-(((5-phenylpyridin-2-yl)oxy)methyl)morpholino)sulfonyl)-1H-indole-2-carboxamide]", "IC50": "> 1000"}
{"compound": "Cc1cc(-c2ccc(OC[C@@H]3CN(S(=O)(=O)c4c(C(N)=O)[nH]c5ccc(Cl)cc45)CCO3)cc2)cc(C)n1", "note": "[Compound 82, (S)-5-chloro-3-((2-((4-(2,6-dimethylpyridin-4-yl)phenoxy)methyl)morpholino)sulfonyl)-1H-indole-2-carboxamide]", "IC50": 13.2}
{"compound": "NC(=O)c1[nH]c2ccc(Cl)cc2c1S(=O)(=O)N1CCO[C@H](COc2ccc(-c3ccccc3Cl)cc2)C1", "note": "[Compound 83, (S)-5-chloro-3-((2-(((2′-chloro-[1,1′-biphenyl]-4-yl)oxy)methyl)morpholino)sulfonyl)-1H-indole-2-carboxamide]", "IC50": 97}
{"compound": "NC(=O)c1[nH]c2ccc(Cl)cc2c1S(=O)(=O)N1CCO[C@H](COc2cccc(-c3ccnc(Cl)c3)c2)C1", "note": "[Compound 85, (S)-5-chloro-3-((2-((3-(2-chloropyridin-4-yl)phenoxy)methyl)morpholino)sulfonyl)-1H-indole-2-carboxamide]", "IC50": 9.7}
{"compound": "NC(=O)c1[nH]c2ccc(Cl)cc2c1S(=O)(=O)N1CCO[C@H](COc2cccc(-c3ccc(Cl)nc3)c2)C1", "note": "[Compound 86, (S)-5-chloro-3-((2-((3-(6-chloropyridin-3-yl)phenoxy)methyl)morpholino)sulfonyl)-1H-indole-2-carboxamide]", "IC50": 4.9}
{"compound": "Cc1cc(OC[C@@H]2CN(S(=O)(=O)c3c(C(N)=O)[nH]c4ccc(Cl)cc34)CCO2)ccc1-c1ccc(Cl)nc1", "note": "[Compound 88, (S)-5-chloro-3-((2-((4-(6-chloropyridin-3-yl)-3-methylphenoxy)methyl)morpholino)sulfonyl)-1H-indole-2-carboxamide]", "IC50": 67}
{"compound": "NC(=O)c1[nH]c2ccc(Cl)cc2c1S(=O)(=O)N1CCO[C@H](COc2cc3ccccc3nn2)C1", "note": "[Compound 89, (S)-5-chloro-3-((2-((cinnolin-3-yloxy)methyl)morpholino)sulfonyl)-1H-indole-2-carboxamide]", "IC50": 136}
{"compound": "NC(=O)c1[nH]c2ccc(Cl)cc2c1S(=O)(=O)N1CCO[C@H](COc2cccc3cccnc23)C1", "note": "[Compound 90, (S)-5-chloro-3-((2-((quinolin-8-yloxy)methyl)morpholino)sulfonyl)-1H-indole-2-carboxamide]", "IC50": "> 100"}
{"compound": "NC(=O)c1[nH]c2ccc(Cl)cc2c1S(=O)(=O)N1CCO[C@H](COc2ncnc3ccccc23)C1", "note": "[Compound 91, (S)-5-chloro-3-((2-((quinazolin-4-yloxy)methyl)morpholino)sulfonyl)-1H-indole-2-carboxamide]", "IC50": "> 100"}
{"compound": "Cn1nc(-c2ccccc2)cc1OC[C@@H]1CN(S(=O)(=O)c2c(C(N)=O)[nH]c3ccc(Cl)cc23)CCO1", "note": "[Compound 92, (S)-5-chloro-3-((2-(((1-methyl-3-phenyl-1H-pyrazol-5-yl)oxy)methyl)morpholino)sulfonyl)-1H-indole-2-carboxamide]", "IC50": "> 100"}
{"compound": "(S)-5-chloro-3-((2-((3′-(dimethylamino)-[1,1′-biphenyl]-3-yl)oxy)methyl)morpholino)sulfonyl)-1H-indole-2-carboxamide [Compound 9]", "IC50": 220}
{"compound": "(S)-5-chloro-3-((2-((5-(4-methoxyphenyl)pyridin-3-yl)oxy)methyl)morpholino)sulfonyl)-1H-indole-2-carboxamide [Compound 74]", "IC50": "> 1000"}
{"tested_on": "not listed separately", "assay": "Oral absorption in Swiss mice", "format": "in vivo", "settings": "10 mg/kg p.o.", "experimental": "(§1) Oral absorption of different compounds was ascertained in Swiss mice. The procedure followed was as detailed below:\n(§2) Species: Swiss mice, overnight fasted state\n(§3) Sex and weight: Male, in the weight range of 25-30 g\n(§4) Number of animals: 18 animals divided into six groups (n=3) and bled as follows:\n(§5) Formulation: Compound suspended in 0.5% carboxymethylcellulose or 0.25% methylcellulose\n(§6) Blood (250 μL) is collected from the retro-orbital sinus at designated time points from each mouse using heparinized bleeding capillaries into micro-centrifuge tubes containing 5 μL EDTA (200 mM) as anticoagulant. Plasma is separated by centrifugation at 10000 rpm for 5 min and samples stored at −70° C. until bioanalysis.\n(§7) On the day of analysis, plasma samples are thawed at room temperature. An aliquot (100 μL) of each plasma sample is spiked individually with 10 μL of internal standard. The samples are then vortexed for 10 seconds followed by addition of 1 mL of extraction solvent and vortexed for 5 minutes. The samples are then centrifuged at 10000 rpm for 5 minutes at 4° C. Supernatants (800 μL) are removed and transferred to glass tubes and evaporated to dryness under nitrogen. The dried residues are reconstituted using 100 μL of 90:10% v/v acetonitrile:MilliQ water. The reconstituted samples are vortexed, centrifuged and injected into LC-MS/MS for analysis. The calibration curve is prepared in the range of 0.5 to 5000 ng/mL in mouse plasma for quantitation."}
{"compound": "NC(=O)c1[nH]c2ccc(Cl)cc2c1S(=O)(=O)N1CCO[C@H](COc2cccc(-c3cccnc3F)c2)C1", "note": "[Compound 3, (S)-5-chloro-3-((2-((3-(2-fluoropyridin-3-yl)phenoxy)methyl)morpholino)sulfonyl)-1H-indole-2-carboxamide]", "AUC as compared to compound 999": "higher", "Cmax as compared to compound 999": "higher"}
{"tested_on": "not listed separately", "assay": "Oral absorption in Swiss mice", "format": "in vivo", "settings": "male, mouse, plasma, po, 10 mg/kg p.o.", "experimental": "as §1, §2, §3, §4, §5, §6, §7", "units": {"Cmax": "nM", "half-life": "h"}}
{"compound": "NC(=O)c1[nH]c2ccc(Cl)cc2c1S(=O)(=O)N1CCO[C@H](COc2cccc(-c3cccnc3F)c2)C1", "note": "[Compound 3, (S)-5-chloro-3-((2-((3-(2-fluoropyridin-3-yl)phenoxy)methyl)morpholino)sulfonyl)-1H-indole-2-carboxamide]", "Cmax": 2980, "half-life": 4.6}
{"tested_on": "not listed separately", "assay": "Oral absorption in Swiss mice", "format": "in vivo", "settings": "male, mouse, plasma, po, 10 mg/kg p.o., read-out: AUC0-infinity", "experimental": "as §1, §2, §3, §4, §5, §6, §7", "units": {"AUC(0-inf)": "ng·h/mL"}}
{"compound": "NC(=O)c1[nH]c2ccc(Cl)cc2c1S(=O)(=O)N1CCO[C@H](COc2cccc(-c3cccnc3F)c2)C1", "note": "[Compound 3, (S)-5-chloro-3-((2-((3-(2-fluoropyridin-3-yl)phenoxy)methyl)morpholino)sulfonyl)-1H-indole-2-carboxamide]", "AUC(0-inf)": 1960}
